Experimental data from patent US3997527A, “Aminomethylarylmethylpenicillin derivatives” (Pfizer Inc., priority 1976, dated 1976).
Converted amounts (≈) assume the structure as drawn.

Assays:
Format in all cases: cell-based
E. coli 51A266 = assay: In vitro antibacterial activity (MIC), E. coli 51A266; settings: Escherichia coli, nutrient broth
Description: (§1) As has been previously mentioned, the penicillins of the present invention are broad spectrum antibiotics which are, unlike many penicillin analogs, highly antagonistic toward gram-negative microorganisms, in particular E. coli and Klebsiella. This unusual activity against certain gram-negative organisms may be attributed to the positioning of the aminomethyl substituent adjacent to the linking amide moiety. The marked effectiveness of this positioning can be readily seen in an antibacterial comparison of 6-(o-aminomethylphenylacetamido)penicillanic acid (o-AMP), a preferred compound of the present invention and 6-(p-aminomethylphenylacetamido)penicillanic acid (p-AMP), a compound of the previously-mentioned British Pat. 1,057,029.

Past. mult. 59A001 = assay: In vitro antibacterial activity (MIC), Past. mult. 59A001; settings: nutrient broth
Description: as §1

S. aureus 01A005 = assay: In vitro antibacterial activity (MIC), S. aureus 01A005; settings: Staphylococcus aureus, nutrient broth
Description: as §1

Kleb. pneumoniae 53A009 = assay: In vitro antibacterial activity (MIC), Kleb. pneumoniae 53A009; settings: Klebsiella pneumoniae, nutrient broth
Description: as §1

Salm. typhm. 530013 = assay: In vitro antibacterial activity (MIC), Salm. typhm. 530013; settings: nutrient broth
Description: as §1

S. pyogenes 020803 = assay: In vitro antibacterial activity (MIC), S. pyogenes 020803; settings: Streptococcus pyogenes, nutrient broth
Description: as §1

E. coli 51A215 = assay: In vitro antibacterial activity (MIC), E. coli 51A215; settings: Escherichia coli, nutrient broth
Description: as §1

Entero. aero. 55A004 = assay: In vitro antibacterial activity (MIC), Entero. aero. 55A004; settings: nutrient broth
Description: as §1

E. coli 51A002 = assay: In vitro antibacterial activity (MIC), E. coli 51A002; settings: Escherichia coli, nutrient broth
Description: as §1

S. aureus 01A052 = assay: In vitro antibacterial activity (MIC), S. aureus 01A052; settings: Staphylococcus aureus, nutrient broth
Description: as §1

| Compound | MIC (E. coli 51A266) | MIC (Past. mult. 59A001) | MIC (S. aureus 01A005) | MIC (Kleb. pneumoniae 53A009) | MIC (Salm. typhm. 530013) | MIC (S. pyogenes 020803) | MIC (E. coli 51A215) | MIC (Entero. aero. 55A004) | MIC (E. coli 51A002) | MIC (S. aureus 01A052) |
| --- | --- | --- | --- | --- | --- | --- | --- | --- | --- | --- |
| CC1(C)S[C@@H]2C(NC(=O)Cc3ccccc3CN)C(=O)N2[C@H]1C(=O)O (some centres unmarked) [o-AMP, 6-(o-aminomethylphenylacetamido)penicillanic acid] | 3.12 mg/L (≈ 8.58 µM) | 0.2 mg/L (≈ 0.55 µM) | 0.2 mg/L (≈ 0.55 µM) | 3.12 mg/L (≈ 8.58 µM) | 3.12 mg/L (≈ 8.58 µM) | < 0.1 mg/L | 6.25 mg/L (≈ 17.2 µM) | 1.56 mg/L (≈ 4.29 µM) | 200 mg/L (≈ 550 µM) | 1.56 mg/L (≈ 4.29 µM) |
| CC1(C)S[C@@H]2C(NC(=O)Cc3ccc(CN)cc3)C(=O)N2[C@H]1C(=O)O (some centres unmarked) [p-AMP, 6-(p-aminomethylphenylacetamido)penicillanic acid] | 50 mg/L (≈ 138 µM) | 0.39 mg/L (≈ 1.07 µM) | 200 mg/L (≈ 550 µM) | 50 mg/L (≈ 138 µM) | 12.5 mg/L (≈ 34.4 µM) | 0.39 mg/L (≈ 1.07 µM) | 6.25 mg/L (≈ 17.2 µM) | > 200 mg/L | > 200 mg/L | 200 mg/L (≈ 550 µM) |
